Assay results reported in US20250034165A1, “COMPOUND CONTAINING CYCLOALKYL OR HALOALKYL” (CHIA TAI TIANQING PHARMACEUTICAL GROUP CO., LTD., priority 2021, published 2025).

Legend:
[1] = In vivo pharmacokinetics in ICR mice; details: mouse, plasma, PO, 10 mg/kg intragastric; for AUC(0-t): read-out: AUC(0-t); for Cmax: read-out: Cmax; for MRT last: read-out: MRT(0-t); for Tmax: read-out: Tmax; for half-life: read-out: T½ (converted)
Protocol: The animals to be tested (ICR mice) were fasted for 12 h before administration and food was provided 4 h after administration, and water was freely drunk before and after the experiment and during the experiment.
After intragastric administration, about 0.1 mL of blood was collected from the orbit at 0 min, 15 min, 30 min, 1 h, 2 h, 4 h, 6 h, 8 h, 10 h, and 24 h. After anticoagulation with EDTA-K2, blood samples were transferred to a centrifuge within 30 min, and centrifuged at 4000 rpm for 10 min at 4° C. to separate the plasma. All the plasma samples were collected and immediately stored at −20° C. for testing.
300 μL of acetonitrile solution containing an internal standard ([…] diazepam) was added to 20 μL of the plasma sample to be tested and a standard curve sample. The mixture was shaken and homogeneously mixed for 5 min, and centrifuged at 12,000 rpm for 10 min. 70 μL of supernatant was taken and diluted with 70 μL of ultrapure water. After being mixed well, 2 μL of the resulting sample was subjected to LC/MS/MS, and a chromatogram was recorded.

[2] = In vitro stability in liver microsomes; type: in vitro ADME; details: Human liver microsome
Protocol: 300 μL of the final incubation system contains 30 μL of liver microsomes (protein concentration: 0.15 mg/mL), 30 μL of NADPH+MgCl2, 3 μL of the test compound (in acetonitrile), and 237 μL of PBS buffer (pH 7.4). The proportion of the organic solvent (acetonitrile) was 1%. Samples were prepared in duplicate of 0.3 mL for each species (e.g., human or mouse liver microsomes). Tubes each containing 270 μL of a mixed solution of substrate and enzyme […] were pre-incubated at 37° C. for 5 min. 30 μL of NADPH+MgCl2 was added and the mixture was mixed. 50 μL of the mixture was taken at 0 min, 15 min, 30 min, and 60 min, and 300 μL of glacial acetonitrile containing an internal standard was added to terminate the reaction.
50 μL of the incubated sample was added with 300 μL of glacial acetonitrile containing an internal standard (20 ng/mL diazepam) for precipitation. The mixture was vortexed for 5 min, and centrifuged (12,000 rpm, 4° C.) for 10 min. 75 μL of supernatant was taken and diluted with 75 μL of ultrapure water. After being homogeneously mixed, 0.5 μL of the resulting sample was injected for analysis.

[3] = target: EGFR (d746-750/T790M/C797S) (Homo sapiens (Human), UniProt P00533, C797S/DEL746-750/T790M); test: Inhibitory activity for EGFR (d746-750/T790M/C797S) kinase; type: biochemical; details: ATP 5 μM; read-out: EGFR(d19/T790M/C797S) (IC50)
EGFR (d746-750/T790M/C797S), sequence (P00533 other isoform, or with tags, fused parts or gaps T790M/C797S/del 1-694/del 746-750 limits assumed): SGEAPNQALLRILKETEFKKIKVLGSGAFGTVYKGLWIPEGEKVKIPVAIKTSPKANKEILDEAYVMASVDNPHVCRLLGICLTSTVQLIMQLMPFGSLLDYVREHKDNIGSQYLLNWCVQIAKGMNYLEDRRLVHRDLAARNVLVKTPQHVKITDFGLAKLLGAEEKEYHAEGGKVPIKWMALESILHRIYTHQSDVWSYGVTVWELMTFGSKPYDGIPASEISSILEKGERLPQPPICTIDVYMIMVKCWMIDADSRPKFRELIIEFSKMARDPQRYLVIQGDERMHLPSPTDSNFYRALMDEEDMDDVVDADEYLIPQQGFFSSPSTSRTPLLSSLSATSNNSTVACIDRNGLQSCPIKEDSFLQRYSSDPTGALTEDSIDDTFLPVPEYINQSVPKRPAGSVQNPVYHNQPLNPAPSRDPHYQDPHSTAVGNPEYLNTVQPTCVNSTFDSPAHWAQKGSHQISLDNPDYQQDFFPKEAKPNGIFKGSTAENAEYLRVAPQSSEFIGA
Procedure, shortened: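 EGFR d746-750/T790M/C797S (0.03 ng/μL final) preincubated 30 min with compound (10 nM–0.0024 nM, 4-fold, 7 points). Reaction with 5 μM ATP and 0.1 μM ULight-poly GT, 2 h at room temperature; EDTA stop, Eu-anti-phosphotyrosine TR-FRET read at 665 nm, IC50 by four-parameter fit.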

[4] = test system: BAF3-EGFR (L858R/T790M/C797S) cells; test: Inhibition of proliferation of BAF3-EGFR (L858R/T790M/C797S) cells, CCK-8; type: cell-based; details: Ba/F3 EGFR, 72 h, read-out: BAF3(EGFR T790M L858R C797S) cell inhibitory activity IC50
Procedure, shortened: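 BaF3 EGFR L858R/T790M/C797S cells seeded at 1.5×10^5 cells/mL in RPMI + 10% FBS, 37 °C, compound added after overnight, duplicates. Viability by CCK-8; % inhibition vs untreated and blank, IC50 by four-parameter fit.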

[5] = test system: PC-9 EGFR-Del19-T790M-C797S cells; test: Inhibition of proliferation of PC-9-EGFR (Del19 T790M C797S) cells, CCK-8; type: cell-based; details: 72 h, read-out: PC-9-EGFR (Del19 T790M C797S) cell inhibitory activity IC50
Protocol: PC-9 EGFR-Del19-T790M-C797S cells in the logarithmic growth phase and good conditions were taken, washed with PBS, digested with pancreatin, terminated with a complete medium, collected and added to a centrifuge tube, adjusted to a cell density of 2×10^4 cells/mL, and seeded in a 96-well plate (100 μL/well). Meanwhile, compounds were loaded using a nanoliter pipettor resulting in the final concentrations of the compounds of 1000 nM-0.06 nM, and a control was set, replicate wells for each concentration. After 72 h of incubation in the cell incubator, the assay reagent CCK-8 (manufacturer: Dojindo Laboratories, Beijing; 10 μL/well) was added. After 2 h of incubation in the cell incubator, absorbance was measured at 450 nm on a PerkinElmer Envision microplate reader, and the inhibition rate was calculated.
(§1) Inhibition rate (%)=(mean value of negative control group-mean value of experimental group)/(mean value of negative control group−mean value of blank group)×100%.
(§2) A dose-response curve was fitted by four-parameter analysis, with the logarithm of compound concentration serving as abscissa and inhibition rate serving as ordinate, such that IC50 was calculated.

[6] = target: EGFR (d746-750 (d19)/T790M) (Homo sapiens (Human), UniProt P00533, DEL746-750/T790M); test: Inhibitory activity for EGFR (d746-750 (d19)/T790M) kinase; type: biochemical; details: ATP 5 μM
EGFR (d746-750 (d19)/T790M), sequence (P00533 other isoform, or with tags, fused parts or gaps T790M/del 1-668/del 746-750 limits assumed): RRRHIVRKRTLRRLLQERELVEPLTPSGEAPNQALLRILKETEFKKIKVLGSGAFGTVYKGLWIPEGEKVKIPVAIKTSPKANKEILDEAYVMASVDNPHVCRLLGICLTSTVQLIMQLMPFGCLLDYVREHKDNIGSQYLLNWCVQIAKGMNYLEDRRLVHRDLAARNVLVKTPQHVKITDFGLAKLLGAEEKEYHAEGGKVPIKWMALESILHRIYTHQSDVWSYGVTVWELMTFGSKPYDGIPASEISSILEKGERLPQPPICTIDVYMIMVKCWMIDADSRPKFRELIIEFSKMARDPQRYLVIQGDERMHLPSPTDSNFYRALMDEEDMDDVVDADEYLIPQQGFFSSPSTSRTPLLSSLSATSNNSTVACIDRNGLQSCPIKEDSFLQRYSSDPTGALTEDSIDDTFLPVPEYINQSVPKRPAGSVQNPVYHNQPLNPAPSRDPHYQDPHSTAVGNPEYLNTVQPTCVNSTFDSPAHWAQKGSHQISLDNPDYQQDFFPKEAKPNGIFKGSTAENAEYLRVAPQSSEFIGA
Procedure, shortened: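 Recombinant EGFR d746-750/T790M (0.003 ng/μL final) preincubated 30 min with compound (10 to 0.0024 nM, 4-fold steps), then 5 μM ATP and 0.1 μM ULight-poly GT added for 2 h at room temperature. EDTA stop, Eu-anti-phosphotyrosine TR-FRET read (665 nm); IC50 by four-parameter fit.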

[7] = test system: BAF3-EGFR (del19/T790M/C797S) cells; test: Inhibition of proliferation of BAF3-EGFR (Del19/T790M/C797S) cells, CCK-8; type: cell-based; details: Ba/F3 EGFR-Del19/T790M/C797S, 72 h, read-out: BAF3(EGFR T790M Del19 C797S) cell inhibitory activity IC50
Protocol: A flask of BAF3-EGFR (del19/T790M/C797S) cells in the logarithmic growth phase and good conditions was taken, and the cells were collected and added to a centrifuge tube. 20 μL of cells were taken and counted, and the required number of cells (mL) was pipetted and centrifuged at 1200 rpm for 3 min. The supernatant was discarded, and an appropriate amount of plating medium (RPMI medium+10% FBS) was added to adjust the cell density to 1.0×10^5 cells/mL. The cells were seeded on a 96-well plate at 100 μL/well using a multi-channel pipette and cultured in a cell incubator at 37° C., 5% CO2 with saturated humidity. After overnight incubation, compounds were loaded using a nanoliter pipettor, 2 duplicate wells were set for each concentration, and cells without compound added were used as negative controls.
as §1, §2

Stability in liver microsomes (residual %, T = 60 min) [2] | IC50 [3] [nM] | IC50 [4] [nM] | IC50 [5] [nM] | IC50 [6] [nM] | IC50 [7] [nM] | SMILES | also measured
81.11% | 0.04 | < 5 |  | 0.013 |  | Cc1cc2cc(n1)-c1cnn(C)c1OCCC[C@@H](C1CC1)CN1/C(=N/C2=O)Nc2cc(NCCCN3CCCC3)ccc21 [Example 70] | 
 | 0.02 | < 5 | < 50 | 0.014 | < 1 | CCN1CCC(Nc2ccc3c(c2)N2C[C@H](C4CC4)CCCOc4c(cnn4C)-c4cc(cc(C)n4)C(=O)/N=C/2N3)CC1 [Example 55] | 
 | 0.021 | < 5 | < 50 | 0.013 | < 1 | Cc1cc2cc(n1)-c1cnn(C)c1OCCC[C@@H](C1CC1)CN1/C(=N/C2=O)Nc2ccc(NC3CCN(C(C)C)CC3)cc21 [Example 54] | 
82.82% |  |  |  |  |  | Cc1cc2cc(n1)-c1cnn(C)c1OCCC[C@@H](C1CC1)CN1/C(=N/C2=O)Nc2cc(NCCCN3CCCCC3)ccc21 [Example 71] | AUC(0-inf) [1]: 1.68 µg·h/mL; AUC(0-t) [1]: 1.62 µg·h/mL; Cmax [1]: 0.138 µg/mL; MRT last [1]: 7.85 h; Tmax [1]: 6 h; half-life [1]: 4.5 h
56.81% | 0.056 | < 5 |  |  |  | Cc1cc2cc(n1)-c1cnn(C)c1OCCC[C@@H](C1CC1)CN1/C(=N/C2=O)Nc2ccc(N[C@@H]3CC[C@@H](N(C)C)C3)cc21 [Example 130] | 
92.24% | 0.065 |  |  |  |  | Cc1cc2cc(n1)-c1cnn(C)c1OCCC[C@@H](C1CC1)CN1/C(=N/C2=O)Nc2cc(N[C@@H]3CC[C@@H](N(C)C)C3)ccc21 [Example 129] | 
 | 0.022 | < 5 | < 50 | 0.013 | < 1 | Cc1cc2cc(n1)-c1cnn(C)c1OCCC[C@@H](C1CC1)CN1/C(=N/C2=O)Nc2cc(NC(C)C3COC3)ccc21 (stereo partly shown) [Example 37] | 
77.10% | 0.12 |  |  |  |  | [2H]C([2H])([2H])N(C[C@H](C)Nc1ccc2c(c1)N/C1=N/C(=O)c3cc(C)nc(c3)-c3cnn(C)c3OCCC[C@@H](C3CC3)CN12)C([2H])([2H])[2H] [Example 124] | 

Continued, compound first:

SMILES | Stability in liver microsomes (residual %, T = 60 min) [2] | IC50 [3] [nM] | IC50 [4] [nM] | IC50 [5] [nM] | IC50 [6] [nM] | IC50 [7] [nM] | also measured
Cc1cc2cc(n1)-c1cnn(C)c1OCCC[C@@H](C1CC1)CN1/C(=N/C2=O)Nc2cc(N[C@@H](C)CN(C)C)ccc21 [Example 68] | 78.57% |  |  |  |  |  | AUC(0-inf) [1]: 1.96 µg·h/mL; AUC(0-t) [1]: 1.95 µg·h/mL; Cmax [1]: 0.148 µg/mL; MRT last [1]: 7.54 h; Tmax [1]: 4 h; half-life [1]: 3.04 h
Cc1cc2cc(n1)-c1cnn(C)c1OCCC[C@@H](C1CC1)CN1/C(=N/C2=O)Nc2ccc(N[C@H]3CC[C@@H](N(C)C)C3)cc21 [Example 132] | 63.76% | 0.066 | < 5 | < 50 |  |  | 
Cc1cc2cc(n1)-c1cnn(C)c1OCCC[C@@H](C1CC1)CN1/C(=N/C2=O)Nc2cc(N[C@H]3CC[C@H](N(C)C)C3)ccc21 [Example 135] | 97.30%. | 0.062 | < 5 | < 50 |  |  | 
Cc1cc2cc(n1)-c1cnn(C)c1OCCC[C@@H](C1CC1)CN1/C(=N/C2=O)Nc2ccc(N[C@H]3C[C@@H](N(C)C)C3)cc21 [Example 127] | 75.00% |  |  | < 50 | 0.12 |  | 
Cc1cc2cc(n1)-c1cnn(C)c1OCCC[C@@H](C1CC1)CN1/C(=N/C2=O)Nc2cc(N[C@H]3C[C@@H](N(C)C)C3)ccc21 [Example 125] | 93.95% | 0.08 |  |  |  |  | 
Cc1cc2cc(n1)-c1cnn(C)c1OCCC[C@@H](C1CC1)CN1/C(=N/C2=O)Nc2cc(NC(C)C3(C)COC3)ccc21 (stereo partly shown) [Example 89] |  | 0.36 | < 5 | < 50 | 0.51 | < 1 | 
Cc1cc2cc(n1)-c1cnn(C)c1OCCC[C@@H](C1CC1)CN1/C(=N/C2=O)Nc2cc(N[C@@H]3CC[C@H](N(C)C)C3)ccc21 [Example 133] | 95.34% | 0.097 | < 5 |  |  |  | 
Cc1cc2cc(n1)-c1cnn(C)c1OCCC[C@@H](C1CC1)CN1/C(=N/C2=O)Nc2ccc(NCCCN3CCOCC3)cc21 [Example 81] |  | 0.037 | < 5 | < 50 | 0.011 | < 1 | 
Cc1cc2cc(n1)-c1cnn(C)c1OCCC[C@@H](C1CC1)CN1/C(=N/C2=O)Nc2ccc(N[C@@H]3CC[C@H](N(C)C)C3)cc21 [Example 134] | 65.19% | 0.069 | < 5 |  |  |  | 
Cc1cc2cc(n1)-c1cnn(C)c1OCCC[C@@H](C1CC1)CN1/C(=N/C2=O)Nc2ccc(NC3CCN(C)CC3)cc21 [Example 20] | 73.66% | 0.02 |  |  | 0.012 |  | 
Cc1cc2cc(n1)-c1cnn(C)c1OCCC[C@@H](C1CC1)CN1/C(=N/C2=O)Nc2cc(N(C)C3COC3)ccc21 [Example 41] |  | 0.016 | < 5 | < 50 | 0.0089 | < 1 | 
Cc1cc2cc(n1)-c1cnn(C)c1OCCC[C@@H](C1CC1)CN1/C(=N/C2=O)Nc2ccc(NCCN3CCCC3)cc21 [Example 82] |  | 0.02 | < 5 | < 50 | 0.0085 | < 1 | 
Cc1cc2cc(n1)-c1cnn(C)c1OCCC[C@@H](C1CC1)CN1/C(=N/C2=O)Nc2cc(NC3CN(C)C3)ccc21 [Example 33] | 83.39% | 0.015 |  |  | 0.0098 |  | 
